From patent US9938257B2 (Sunshine Lake Pharma Co., Ltd., priority 2015, dated 2018)

Legend:
[1] = Compound stability in human liver microsomes; format: in vitro ADME; conditions: pH 7.4; for half-life at 5 μM: human liver microsomes 0.5 mg protein/mL, compound 5 μM, NADPH 1.0 mM, 37° C., read-out: Human T1/2; for CLint scaled at 5 μM: human liver microsomes, in vivo CLint extrapolated
Protocol: (§1) Human or rat liver microsomes incubations were conducted in duplicate in polypropylene tubes. The typical incubation mixtures consisted of human or rat liver microsomes (0.5 mg protein/mL), compounds of interest (5 μM) and NADPH (1.0 mM) in a total volume of 200 μL potassium phosphate buffer (PBS, 100 mM, pH 7.4). Compounds were dissolved in DMSO and diluted with PBS such that the final concentration of DMSO was 0.05%. The enzymatic reactions were commenced with the addition of protein after a 3-min preincubation and incubated in a water bath open to the air at 37° C. Reactions were terminated at various time points (0, 5, 10, 15, 30, 60 min) by adding equal volume of ice-cold acetonitrile. The samples were stored at −80° C. until LC/MS/MS assays.
(§2) The concentrations of compounds in the incubation mixtures of human or rat liver microsomes were determined by a LC/MS/MS method. The ranges of the linearity in the concentration range were determined for each tested compounds.
(§3) A parallel incubation was performed using denatured microsomes as the negative control, and reactions were terminated at various time points (0, 15, 60 min) after incubation at 37° C.
(§4) Dextromethorphan (70 μM) was selected as the positive control, and reactions were terminated at various time points (0, 5, 10, 15, 30, 60 min) after incubation at 37° C. Both positive and negative control samples were included in each assay to ensure the integrity of the microsomal incubation system.
(§5) The concentrations of compounds in human or rat liver microsome incubations were plotted as a percentage of the relevant zero time point control for each reaction. The in vivo CLint were extrapolated (ref.: Naritomi, Y.; Terashita, S.; Kimura, S.; Suzuki, A.; Kagayama, A.; and Sugiyama, Y.; Prediction of human hepatic clearance from in vivo animal experiments and in vitro metabolic studies with liver microsomes from animals and humans. Drug Metab. Dispos., 2001, 29: 1316-1324).

[2] = Compound stability in rat liver microsomes; format: in vitro ADME; conditions: pH 7.4; for half-life at 5 μM: rat liver microsomes 0.5 mg protein/mL, compound 5 μM, NADPH 1.0 mM, 37° C., read-out: Rat T1/2; for CLint scaled at 5 μM: rat liver microsomes, in vivo CLint extrapolated
Protocol: as §1, §2, §3, §4, §5

[3] = target: Aurora-B (h) (Homo sapiens (Human), UniProt Q96GD4); assay: Aurora-B (h) kinase activity assay; format: biochemical
Aurora-B (h), sequence (Q96GD4 whole entry): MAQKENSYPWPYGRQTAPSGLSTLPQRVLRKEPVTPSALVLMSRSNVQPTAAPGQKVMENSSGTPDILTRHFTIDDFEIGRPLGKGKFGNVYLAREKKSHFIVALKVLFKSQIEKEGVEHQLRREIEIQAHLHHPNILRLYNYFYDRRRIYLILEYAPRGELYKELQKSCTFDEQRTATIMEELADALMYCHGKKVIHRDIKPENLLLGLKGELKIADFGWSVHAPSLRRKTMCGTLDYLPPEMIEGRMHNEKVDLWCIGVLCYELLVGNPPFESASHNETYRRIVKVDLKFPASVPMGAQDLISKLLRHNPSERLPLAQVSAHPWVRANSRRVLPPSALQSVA
Protocol: (§6) The above assay procedure can be used to determine the IC50 for inhibition and/or the inhibition constant, Ki. The IC50 is defined as the concentration of compound required to reduce the enzyme activity by 50% under the condition of the assay. The IC50 value is estimated by preparing a 10 point curve using a ½ log dilution series (for example, a typical curve may be prepared using the following compound concentrations: 3 μM, 1 μM, 0.3 μM, 0.1 μM, 0.03 μM, 0.01 μM, 0.003 μM, 0.001 μM, 0.0003 μM and 0 μM).
(§7) Aurora-B (h) is incubated with 8 mM MOPS pH 7.0, 0.2 mM EDTA, 30 μM AKRRRLSSLRA, 10 mM MgAcetate and [γ-^33PATP] (specific activity approx. 500 cpm/pmol, concentration as required). The reaction is initiated by the addition of the MgATP mix. After incubation for 40 minutes at room temperature, the reaction is stopped by the addition of a 3% phosphoric acid solution. 10 μL of the reaction is then spotted onto a P30 filtermat and washed three times for 5 minutes in 75 mM phosphoric acid and once in methanol prior to drying and scintillation counting.
(§8) The kinase assays described herein were performed at Millipore UK Ltd, Dundee Technology Park, Dundee DD2 1SW, UK.

[4] = target: JAK1 (h) (Homo sapiens (Human), UniProt P23458); assay: JAK1 (h) kinase activity assay; format: biochemical
JAK1 (h), sequence (P23458 whole entry): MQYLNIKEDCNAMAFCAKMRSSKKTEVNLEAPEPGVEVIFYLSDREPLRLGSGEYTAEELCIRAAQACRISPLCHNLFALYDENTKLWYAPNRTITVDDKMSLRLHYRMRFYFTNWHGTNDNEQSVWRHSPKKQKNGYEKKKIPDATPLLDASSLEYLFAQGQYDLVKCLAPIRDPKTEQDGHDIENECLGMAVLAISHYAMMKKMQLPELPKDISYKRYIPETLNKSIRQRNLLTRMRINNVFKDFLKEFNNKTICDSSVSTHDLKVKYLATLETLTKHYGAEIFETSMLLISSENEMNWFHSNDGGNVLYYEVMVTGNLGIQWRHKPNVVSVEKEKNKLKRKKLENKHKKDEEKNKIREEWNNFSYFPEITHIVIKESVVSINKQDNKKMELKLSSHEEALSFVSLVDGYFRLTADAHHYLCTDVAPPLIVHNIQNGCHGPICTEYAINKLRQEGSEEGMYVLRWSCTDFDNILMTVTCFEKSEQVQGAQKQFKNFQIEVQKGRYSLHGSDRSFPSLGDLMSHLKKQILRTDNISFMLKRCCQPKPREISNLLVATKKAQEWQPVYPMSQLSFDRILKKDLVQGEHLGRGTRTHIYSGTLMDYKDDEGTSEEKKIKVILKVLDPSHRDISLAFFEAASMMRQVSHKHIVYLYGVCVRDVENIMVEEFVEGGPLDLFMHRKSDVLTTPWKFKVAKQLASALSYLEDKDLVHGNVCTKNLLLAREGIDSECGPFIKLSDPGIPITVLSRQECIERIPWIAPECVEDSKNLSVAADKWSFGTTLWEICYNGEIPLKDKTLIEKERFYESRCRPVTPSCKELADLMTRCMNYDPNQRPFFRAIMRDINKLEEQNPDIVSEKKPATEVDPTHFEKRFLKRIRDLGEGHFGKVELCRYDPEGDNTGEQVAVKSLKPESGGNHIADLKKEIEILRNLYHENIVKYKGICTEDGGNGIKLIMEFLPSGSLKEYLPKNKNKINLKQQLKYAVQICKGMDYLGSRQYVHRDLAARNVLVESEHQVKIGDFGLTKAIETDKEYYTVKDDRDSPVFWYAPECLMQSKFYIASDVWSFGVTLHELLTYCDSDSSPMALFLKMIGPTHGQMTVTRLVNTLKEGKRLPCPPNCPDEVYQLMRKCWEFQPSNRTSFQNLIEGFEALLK
Protocol: as §6
JAK1 (h) is incubated with 20 mM Tris/HCl pH 7.5, 0.2 mM EDTA, 500 μM GEEPLYWSFPAKKK, 10 mM MgAcetate and [γ-^33P-ATP] (specific activity approx. 500 cpm/pmol, concentration as required). The reaction is initiated by the addition of the MgATP mix. After incubation for 40 minutes at room temperature, the reaction is stopped by the addition of 3% phosphoric acid solution. 10 μL of the reaction is then spotted onto a P30 filtermat and washed three times for 5 minutes in 75 mM phosphoric acid and once in methanol prior to drying and scintillation counting.
as §8

[5] = Pharmacokinetics after intravenous and oral administration in rats; format: in vivo; conditions: for Clearance (CL) after iv dosing / AUC(0-t) / half-life / Vd: dose 1 mg/kg, iv dosing; for F: oral bioavailability, iv dose 1 mg/kg; for AUC(0-t) / half-life / Vd: rat, plasma; for Vd: read-out: Vss
Protocol: The compounds disclosed herein are assessed in pharmacokinetic studies in mice, rats, dogs or monkeys. The compounds are administered as a water solution, 2% HPMC+1% TWEEN®80 in water solution, 5% DMSO+5% solutol in saline, 4% MC suspension or capsule. For the intravenous administration, the animals are generally given at 0.5, 1 or 2 mg/kg dose. For the oral (p.o.) dosing, mice and rats are generally given 0.5, 1, 5 or 10 mg/kg dose, and dogs and monkeys are generally given 10 mg/kg dose. The blood samples (0.3 mL) are drawn at 0.25, 0.5, 1.0, 2.0, 3.0, 4.0, 6.0, 8.0, 12 and 24 h time points or 0.083, 0.25, 0.5, 1.0, 2.0, 4.0, 6.0, 8.0 and 24 h time points and centrifuged at 3,000 or 4000 rpm for 2 to 10 min. The plasma solutions are collected, and stored at −20° C. or −70° C. until analyzed by LC/MS/MS as described above.

[6] = target: Aurora-A (h) (Homo sapiens (Human), UniProt O14965); assay: Aurora-A (h) kinase activity assay; format: biochemical
Aurora-A (h), sequence (O14965 whole entry): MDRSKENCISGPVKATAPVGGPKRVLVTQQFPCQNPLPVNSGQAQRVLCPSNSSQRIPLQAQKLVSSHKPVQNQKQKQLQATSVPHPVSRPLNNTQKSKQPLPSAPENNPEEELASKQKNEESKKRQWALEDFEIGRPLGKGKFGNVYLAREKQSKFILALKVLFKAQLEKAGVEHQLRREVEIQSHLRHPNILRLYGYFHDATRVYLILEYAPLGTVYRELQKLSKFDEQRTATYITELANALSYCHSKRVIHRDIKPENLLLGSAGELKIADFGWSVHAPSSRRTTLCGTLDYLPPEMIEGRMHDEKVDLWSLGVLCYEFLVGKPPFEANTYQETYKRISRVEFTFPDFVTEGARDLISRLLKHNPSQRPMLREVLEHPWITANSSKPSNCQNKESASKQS
Protocol: as §6
as §7, with “Aurora-A (h)” for “Aurora-B (h)”, “EDTA, 200” for “EDTA, 30”, “μM LRRASLG (Kemptide),” for “μM AKRRRLSSLRA,”, “and [γ-^33P-ATP]” for “and [γ-^33PATP]”, “of” for “of a”
as §8

| SMILES | half-life at 5 μM [1] | CLint scaled at 5 μM [1] | half-life at 5 μM [2] | CLint scaled at 5 μM [2] | IC50 [3] | IC50 [4] | Clearance (CL) after iv dosing [5] | F [5] | AUC(0-t) [5] | half-life [5] | Vd [5] | IC50 [6] |
| --- | --- | --- | --- | --- | --- | --- | --- | --- | --- | --- | --- | --- |
| Cn1cc(Nc2ncc(Cl)c(NC3CC4CN(C(=O)NC5CC5)CC4C3)n2)cn1 (stereo not shown) [Ex. 19, 5-((5-chloro-2-((1-methyl-1H-pyrazol-4-yl)amino)pyrimidin-4-yl)amino)-N-cyclopropylhexahydrocyclopenta[c]pyrrole-2(1H)-carboxamide] | 178 min | 9.78 mL/min/kg | 96.9 min | 25.6 mL/min/kg | 1 nM | 23 nM | 63.7 mL/min/kg | 24.0% | 263 ng·h/mL | 21 min | 0.95 L/kg | 8 nM |
| CCNS(=O)(=O)N1CC2CC(Nc3nc(Nc4cnn(C)c4)ncc3Cl)CC2C1 (stereo not shown) [Ex. 24, 5-((5-chloro-2-((1-methyl-1H-pyrazol-4-yl)amino)pyrimidin-4-yl)amino)-N-ethylhexahydrocyclopenta[c]pyrrole-2(1H)-sulfonamide] | 34 min | 51.2 mL/min/kg | 9.3 min | 267 mL/min/kg | 0.7 nM | 2 nM | 75.8 mL/min/kg | 31.9% | 231 ng·h/mL | 24 min | 2.02 L/kg | 3 nM |
| Cn1cc(Nc2ncc(Cl)c(NC3CC4CN(S(=O)(=O)NC5CC5)CC4C3)n2)cn1 (stereo not shown) [Ex. 34, 5-((5-chloro-2-((1-methyl-1H-pyrazol-4-yl)amino)pyrimidin-4-yl)amino)-N-cyclopropylhexahydrocyclopenta[c]pyrrole-2(1H)-sulfonamide] | 35.7 min | 48.6 mL/min/kg | 17.8 min | 140 mL/min/kg | 0.8 nM | 3 nM | 48.8 mL/min/kg | 54.0% | 348 ng·h/mL | 17.4 min | 1.18 L/kg | 1 nM |
| CC(O)Cn1cc(Nc2ncc(Cl)c(NC3CC4CN(S(C)(=O)=O)CC4C3)n2)cn1 (stereo not shown) [Ex. 38, 1-(4-((5-chloro-4-((2-(methylsulfonyl)octahydrocyclopenta[c]pyrrol-5-yl)amino)pyrimidin-2-yl)amino)-1H-pyrazol-1-yl)propan-2-ol] | 67.1 min | 25.9 mL/min/kg | 45.5 min | 54.6 mL/min/kg | 1 nM | 1 nM | 62.8 mL/min/kg | 35.3% | 270 ng·h/mL | 25.2 min | 1.65 L/kg | 0.8 nM |

Continued, values first:

| half-life at 5 μM [1] | CLint scaled at 5 μM [1] | half-life at 5 μM [2] | CLint scaled at 5 μM [2] | IC50 [3] | IC50 [4] | Clearance (CL) after iv dosing [5] | F [5] | AUC(0-t) [5] | half-life [5] | Vd [5] | IC50 [6] | SMILES |
| --- | --- | --- | --- | --- | --- | --- | --- | --- | --- | --- | --- | --- |
| 49.6 min | 35 mL/min/kg | 39.2 min | 63.3 mL/min/kg | 1 nM | 2 nM | 96 mL/min/kg | 40.5% | 295 ng·h/mL | 38.4 min | 1.88 L/kg | 2 nM | CC(C)(O)Cn1cc(Nc2ncc(Cl)c(NC3CC4CN(S(C)(=O)=O)CC4C3)n2)cn1 (stereo not shown) [Ex. 39, 1-(4-((5-chloro-4-((2-(methylsulfonyl)octahydrocyclopenta[c]pyrrol-5-yl)amino)pyrimidin-2-yl)amino)-1H-pyrazol-1-yl)-2-methylpropan-2-ol] |
| – | – | – | – | 1 nM | – | 60.8 mL/min/kg | 31.4% | 276 ng·h/mL | 51.6 min | 1.75 L/kg | 5 nM | CC(O)Cn1cc(Nc2ncc(Cl)c(NC3CC4CN(S(=O)(=O)C5CC5)CC4C3)n2)cn1 (stereo not shown) [Ex. 44, 1-(4-((5-chloro-4-((2-(cyclopropylsulfonyl)octahydrocyclopenta[c]pyrrol-5-yl)amino)pyrimidin-2-yl)amino)-1H-pyrazol-1-yl)propan-2-ol] |
| – | – | – | – | 0.8 nM | – | 62.3 mL/min/kg | 27.1% | 267 ng·h/mL | 39.6 min | 1.97 L/kg | 5 nM | CCNS(=O)(=O)N1CC2CC(Nc3nc(Nc4cnn(CC(C)O)c4)ncc3Cl)CC2C1 (stereo not shown) [Ex. 45, 5-((5-chloro-2-((1-(2-hydroxypropyl)-1H-pyrazol-4-yl)amino)pyrimidin-4-yl)amino)-N-ethylhexahydrocyclopenta[c]pyrrole-2(1H)-sulfonamide] |
| – | – | – | – | 1 nM | – | 60.7 mL/min/kg | 24.9% | 277 ng·h/mL | 15.6 min | 1.13 L/kg | 10 nM | CC(O)Cn1cc(Nc2ncc(Cl)c(NC3CC4CN(S(=O)(=O)CC5CC5)CC4C3)n2)cn1 (stereo not shown) [Ex. 46, 1-(4-((5-chloro-4-((2-((cyclopropylmethyl)sulfonyl)octahydrocyclopenta[c]pyrrol-5-yl)amino)pyrimidin-2-yl)amino)-1H-pyrazol-1-yl)propan-2-ol] |
| – | – | – | – | 0.6 nM | – | 69.3 mL/min/kg | 22.4% | 239 ng·h/mL | 42.6 min | 2.37 L/kg | 7 nM | CC(O)Cn1cc(Nc2ncc(Cl)c(NC3CC4CN(S(=O)(=O)NC5CC5)CC4C3)n2)cn1 (stereo not shown) [Ex. 47, 5-((5-chloro-2-((1-(2-hydroxypropyl)-1H-pyrazol-4-yl)amino)pyrimidin-4-yl)amino)-N-cyclopropylhexahydrocyclopenta[c]pyrrole-2(1H)-sulfonamide] |
